Data as given in patent US20210369720A1, “SYNERGISTIC COMPOSITION HAVING NEUROPROTECTIVE PROPERTIES AND METHODS OF USE THEREOF” (Rutgers, The State University of New Jersey, priority 2018, published 2021).

Experiments:
MAP2 = experiment: Immunofluorescence staining of MAP2 in the cortex, Syn^Tg mice; format: in vivo; conditions: EHT 12 mg/kg/day and/or caffeine 50 mg/kg/day until six months of age
From the text: (§1) Thy1-α-synuclein transgenic mice (Syn^Tg) on BDF1 background overexpressing human wild-type α-synuclein under the control of the Thy1 promoter were maintained by mating heterozygous transgenic females with WT BDF1 males (Rockenstein E, et al. (2002) Differential neuropathological alterations in transgenic mice expressing alpha-synuclein from the platelet-derived growth factor and Thy-1 promoters. J Neurosci Res 68(5):568-578). BDF1 mice (mixed C57BL/6-DBA/2) were generated every three months by mating female C57BL/6 (The Jackson Laboratory) and male DBA/2 mice (Charles River). Experiments were performed with male transgenic mice and their WT littermates. […] Wild-type littermates received regular water and control chow. […] At two months of age, mice were inoculated with α-Syn PFF unilaterally in the striatum. These treatments continued throughout the experiment until animals were sacrificed. Mice were weighed and their food and water intake was quantified weekly. Animals were housed 2-5/cage in an AAALAC approved facility in a temperature- and humidity-controlled environment under a 12-hour light/dark cycle and were maintained on a diet of lab chow and water ad libitum. […]

GFAP = experiment: Immunohistochemical staining of GFAP in the cortex, Syn^Tg mice; format: in vivo; conditions: EHT 12 mg/kg/day and/or caffeine 50 mg/kg/day until six months of age
From the text: Neuroinflammation is one of the neuropathological features of PD and models of α-synucleinopathy including Syn^Tg mice (Lee K W, et al. (2011) Enhanced phosphatase activity attenuates alpha-synucleinopathy in a mouse model. J Neurosci 31(19):6963-6971).
Thy1-α-synuclein transgenic mice (Syn^Tg) on BDF1 background overexpressing human wild-type α-synuclein under the control of the Thy1 promoter were maintained by mating heterozygous transgenic females with WT BDF1 males (Rockenstein E, et al. (2002) Differential neuropathological alterations in transgenic mice expressing alpha-synuclein from the platelet-derived growth factor and Thy-1 promoters. J Neurosci Res 68(5):568-578). BDF1 mice (mixed C57BL/6-DBA/2) were generated every three months by mating female C57BL/6 (The Jackson Laboratory) and male DBA/2 mice (Charles River). Experiments were performed with male transgenic mice and their WT littermates. […] Wild-type littermates received regular water and control chow. […] Mice were weighed and their food and water intake was quantified weekly. […]
Vectastain elite ABC kit (Vector Laboratories, Burlingame, Calif.) and 3,3′-diaminobenzidine (Sigma-Aldrich) were used for amplifying and color development. […] For other stains, the whole microscopic field was analyzed. For p-α-Syn stains in the cortex, four matching regions in each of two sections per animal were counted.

PP2A [1] = experiment: Western blot of PP2A methylation, striatal tissue lysates of Syn^Tg mice; format: in vivo; conditions: EHT 12 mg/kg/day and/or caffeine 50 mg/kg/day
From the text: Thy1-α-synuclein transgenic mice (Syn^Tg) on BDF1 background overexpressing human wild-type α-synuclein under the control of the Thy1 promoter were maintained by mating heterozygous transgenic females with WT BDF1 males (Rockenstein E, et al. (2002) Differential neuropathological alterations in transgenic mice expressing alpha-synuclein from the platelet-derived growth factor and Thy-1 promoters. J Neurosci Res 68(5):568-578). BDF1 mice (mixed C57BL/6-DBA/2) were generated every three months by mating female C57BL/6 (The Jackson Laboratory) and male DBA/2 mice (Charles River). Experiments were performed with male transgenic mice and their WT littermates. […] Wild-type littermates received regular water and control chow. […] At two months of age, mice were inoculated with α-Syn PFF unilaterally in the striatum. These treatments continued throughout the experiment until animals were sacrificed. Mice were weighed and their food and water intake was quantified weekly. Animals were housed 2-5/cage in an AAALAC approved facility in a temperature- and humidity-controlled environment under a 12-hour light/dark cycle and were maintained on a diet of lab chow and water ad libitum. All animal procedures were approved by the Rutgers-Robert Wood Johnson Medical School Institutional Animal Care and Use Committee and were performed according to the National Institutes of Health Guide for the Care and Use of Laboratory Animals.
(§2) Human neuroblastoma SH-SY5Y cells were cultured in DMEM-F12 with 10% FBS. At 50% confluency, cells were treated with 1 gg/ml mouse α-Syn PFF in DMEM-F12 with 1% FBS for 7 days. Medium was refreshed every 3 days. Cell harvesting was done with 2% SDS in PBS supplemented with protease inhibitor (Millipore) and phosphatase inhibitor (Sigma-Aldrich). Lysates were sonicated and boiled at 95° C. for 5 minutes. Protein concentration was determined by bicinchonic acid (BCA) method (Pierce), equal amount of protein was separated on 5-20% SDS-PAGE gel (Genescript) and transferred to nitrocellulose or PVDF membrane (Biorad). Following transfer, membranes were blocked for 1 hour at room temperature in blocking buffer (Li-Cor) or 5% (w/v) BSA/TBS-Tween 0.1% (v/v). Primary antibodies were diluted in blocking buffer or 5% (w/v) BSA/TBS-Tween 0.1% (v/v) and incubated with the membranes at 4° C. overnight. Membranes were washed three times in TBS-Tween and incubated in diluted IRDye 800CW or HRP conjugated secondary antibody for 1 hour at room temperature. Following washing, membranes were scanned by Li-Cor Odyssey CLx infrared imaging system or treated with the Western Lightning ECL-plus reagents (PerkinElmer) and exposed to autoradiography films (LabScientific).

[2] = test system: Tyrosine hydroxylase (TH); experiment: Striatal TH staining, α-Syn PFF inoculated WT mice; format: in vivo; conditions: EHT 12 mg/kg/day and/or caffeine 50 mg/kg/day, vs untreated α-Syn PFF inoculated mice
From the text: as §1

PP2A [3] = experiment: Western blot of PP2A methylation in SH-SY5Y cells challenged with α-Syn PFF; format: cell-based, Human; conditions: SH-SY5Y cells challenged with mouse α-Syn PFF for 7 days; caffeine and/or EHT added to the medium
Experimental: as §2

## CCCCCCCCCCCCCCCCCCCC(=O)NCCc1c[nH]c2ccc(O)cc12 [EHT, eicosanoyl-5-hydroxytryptamide]
MAP2
  MAP2 in the cortex (neuritic integrity): did not improve this profile
GFAP
  astrocytic proliferation (GFAP) in the cortex: partially but insignificantly attenuated
PP2A [1]
  ratio between methyl- and demethyl-PP2A: did not change
PP2A [1]; normalized to total PP2A
  Demethylated PP2A (demethyl-PP2A) levels: not affected
  Methylated PP2A (Methyl-PP2A) levels: did not change
[2]
  TH staining of dopaminergic terminals in the striatum (ipsilateral and contralateral): non-significant increase
PP2A [3]
  demethylated PP2A levels: partially reversed this trend
  methyl- to demethyl-PP2A ratio: not individually
  methylated PP2A levels: partially reversed this trend
